Measured values reported in ChEMBL document CHEMBL1255455, “Biochemical study of a new inhibitor-resistant beta-lactamase, SHV-84, produced by a clinical Escherichia coli strain” (2010).
≈ marks a conversion by molar mass, not a printed value.

B1: Beta-lactamase SHV-1 (Escherichia coli), P0AD63 (protein)
chain: MRYIRLCIISLLATLPLAVHASPQPLEQIKLSESQLSGRVGMIEMDLASGRTLTAWRADERFPMMSTFKVVLCGAVLARVDAGDEQLERKIHYRQQDLVDYSPVSEKHLADGMTVGELCAAAITMSDNSAANLLLATVGGPAGLTAFLRQIGDNVTRLDRWETELNEALPGDARDTTTPASMAATLRKLLTSQRLSARSQRQLLQWMVDDRVAGPLIRSVLPAGWFIADKTGAGERGARGIVALLGPNNKAERIVVIYLRDTPASMAERNQQIAGIGAALIEHWQR

Legend:
Escherichia coli [1] = assay: Activity at Escherichia coli beta-lactamase SHV-84
Escherichia coli [2] = assay: Ratio of Kcat to Km in Escherichia coli beta-lactamase SHV-84
Escherichia coli [3] = assay: Antimicrobial activity against Escherichia coli DH5alpha; format: functional
Escherichia coli [4] = assay: Antimicrobial activity against Escherichia coli DH5alpha expressing SHV-1; format: functional
Escherichia coli [5] = assay: Antimicrobial activity against Escherichia coli DH5alpha expressing SHV-84; format: functional
Escherichia coli [6] = assay: Antimicrobial activity against Escherichia coli INSRA4590 expressing SHV-84; format: functional
Escherichia coli [7] = assay: Antimicrobial activity against Escherichia coli DH5alpha in presence of 2 ug/ml clavulanic acid beta-lactamase inhibitor; format: functional
Escherichia coli [8] = assay: Antimicrobial activity against Escherichia coli DH5alpha expressing SHV-1 in presence of 2 ug/ml clavulanic acid beta-lactamase inhibitor; format: functional
Escherichia coli [9] = assay: Antimicrobial activity against Escherichia coli DH5alpha expressing SHV-84 in presence of 2 ug/ml clavulanic acid beta-lactamase inhibitor; format: functional
Escherichia coli [10] = assay: Antimicrobial activity against Escherichia coli INSRA4590 expressing SHV-84 in presence of 2 ug/ml clavulanic acid beta-lactamase inhibitor; format: functional
Escherichia coli [11] = assay: Antimicrobial activity against Escherichia coli DH5alpha in presence of 4 ug/ml Tazobactam beta-lactamase inhibitor; format: functional
Escherichia coli [12] = assay: Antimicrobial activity against Escherichia coli DH5alpha expressing SHV-1 in presence of 4 ug/ml Tazobactam beta-lactamase inhibitor; format: functional
Escherichia coli [13] = assay: Antimicrobial activity against Escherichia coli DH5alpha expressing SHV-84 in presence of 4 ug/ml Tazobactam beta-lactamase inhibitor; format: functional
Escherichia coli [14] = assay: Antimicrobial activity against Escherichia coli INSRA4590 expressing SHV-84 in presence of 4 ug/ml Tazobactam beta-lactamase inhibitor; format: functional
[15] = substrate: CC(=O)OCC1=C(C(=O)O)N2C(=O)[C@@H](NC(=O)Cc3cccs3)[C@H]2SC1; assay: (§1) Activity at Escherichia coli beta-lactamase SHV-1
[16] = substrate: CC(C)(O/N=C(\C(=O)N[C@@H]1C(=O)N2C(C(=O)[O-])=C(C[n+]3ccccc3)CS[C@H]12)c1csc(N)n1)C(=O)O; assay: as §1
[17] = substrate: CC1(C)S[C@@H]2[C@H](NC(=O)Cc3ccccc3)C(=O)N2[C@H]1C(=O)O; assay: as §1
[18] = substrate: CC1(C)S[C@@H]2[C@H](NC(=O)[C@H](C(=O)O)c3ccsc3)C(=O)N2[C@H]1C(=O)O; assay: as §1
[19] = substrate: CC1(C)S[C@@H]2[C@H](NC(=O)[C@H](N)c3ccc(O)cc3)C(=O)N2[C@H]1C(=O)O; assay: as §1
[20] = substrate: CCN1CCN(C(=O)N[C@@H](C(=O)N[C@@H]2C(=O)N3[C@@H]2SC(C)(C)[C@@H]3C(=O)O)c2ccccc2)C(=O)C1=O; assay: as §1
[21] = substrate: CO/N=C(\C(=O)N[C@@H]1C(=O)N2C(C(=O)O)=C(COC(C)=O)CS[C@H]12)c1csc(N)n1; assay: as §1
[22] = substrate: CC1(C)S[C@@H]2[C@H](NC(=O)Cc3ccccc3)C(=O)N2[C@H]1C(=O)O; assay: (§2) Ratio of Kcat to Km in Escherichia coli beta-lactamase SHV-1
[23] = substrate: CC1(C)S[C@@H]2[C@H](NC(=O)[C@H](C(=O)O)c3ccsc3)C(=O)N2[C@H]1C(=O)O; assay: as §2
[24] = substrate: CC1(C)S[C@@H]2[C@H](NC(=O)[C@H](N)c3ccc(O)cc3)C(=O)N2[C@H]1C(=O)O; assay: as §2
[25] = substrate: CCN1CCN(C(=O)N[C@@H](C(=O)N[C@@H]2C(=O)N3[C@@H]2SC(C)(C)[C@@H]3C(=O)O)c2ccccc2)C(=O)C1=O; assay: as §2

Molecule | Km (Escherichia coli [1]) [µM] | kcat (Escherichia coli [1]) [s⁻¹] | kcat/Km (Escherichia coli [2]) [M⁻¹ s⁻¹] | MIC (Escherichia coli [3]) [µg/mL] | MIC (Escherichia coli [4]) [µg/mL] | MIC (Escherichia coli [5]) [µg/mL] | MIC (Escherichia coli [6]) [µg/mL] | also measured
CC1(C)S[C@@H]2[C@H](NC(=O)Cc3ccccc3)C(=O)N2[C@H]1C(=O)O | 64 | 611 | 9.5e+06 |  |  |  |  | 
CC1(C)S[C@@H]2[C@H](NC(=O)[C@H](N)c3ccc(O)cc3)C(=O)N2[C@H]1C(=O)O [AMOXICILLIN] | 101 | 1040 | 1.04e+07 | ≤ 2 | 2050 (≈ 5600 µM) | 2050 (≈ 5600 µM) | 512 (≈ 1400 µM) | MIC (Escherichia coli [7]): ≤ 2 µg/mL; MIC (Escherichia coli [8]): 8 µg/mL; MIC (Escherichia coli [9]): > 64 µg/mL; MIC (Escherichia coli [10]): 64 µg/mL
C[C@H]1[C@H](NC(=O)/C(=N\OC(C)(C)C(=O)O)c2csc(N)n2)C(=O)N1S(=O)(=O)O [AZTREONAM] |  |  |  |  |  | 0.03 (≈ 0.0689 µM) | 0.03 (≈ 0.0689 µM) | 
CO/N=C(\C(=O)N[C@@H]1C(=O)N2C(C(=O)O)=C(COC(C)=O)CS[C@H]12)c1csc(N)n1 [CEFOTAXIME] |  | < 0.1 |  | ≤ 0.015 | 0.06 (≈ 0.132 µM) | 0.06 (≈ 0.132 µM) | 0.125 (≈ 0.274 µM) | 
CC(C)(O/N=C(\C(=O)N[C@@H]1C(=O)N2C(C(=O)[O-])=C(C[n+]3ccccc3)CS[C@H]12)c1csc(N)n1)C(=O)O [CEFTAZIDIME] |  | < 0.1 |  | 0.06 (≈ 0.11 µM) | 0.5 (≈ 0.915 µM) | 0.25 (≈ 0.457 µM) | 0.25 (≈ 0.457 µM) | 
CC(=O)OCC1=C(C(=O)O)N2C(=O)[C@@H](NC(=O)Cc3cccs3)[C@H]2SC1 [CEPHALOTHIN] | 169 | 4 | 20000 | 1 (≈ 2.52 µM) | 16 (≈ 40.4 µM) | 8 (≈ 20.2 µM) | 8 (≈ 20.2 µM) | 
CCN1CCN(C(=O)N[C@@H](C(=O)N[C@@H]2C(=O)N3[C@@H]2SC(C)(C)[C@@H]3C(=O)O)c2ccccc2)C(=O)C1=O [PIPERACILLIN] | 68 | 406 | 6e+06 | 1 (≈ 1.93 µM) | 64 (≈ 124 µM) | 128 (≈ 247 µM) | 64 (≈ 124 µM) | MIC (Escherichia coli [11]): 1 µg/mL; MIC (Escherichia coli [12]): 2 µg/mL; MIC (Escherichia coli [13]): 2 µg/mL; MIC (Escherichia coli [14]): 4 µg/mL
CC1(C)S[C@@H]2[C@H](NC(=O)[C@H](C(=O)O)c3ccsc3)C(=O)N2[C@H]1C(=O)O [TICARCILLIN] | 83 | 216 | 2.5e+06 | ≤ 2 | 1020 (≈ 2660 µM) | > 4100 | > 4100 | 
B1 |  |  |  |  |  |  |  | Km [15]: 40 µM; kcat [15]: 128 s⁻¹; kcat [16]: < 0.1 s⁻¹; Km [17]: 23 µM; kcat [17]: 1940 s⁻¹; Km [18]: 11 µM; kcat [18]: 220 s⁻¹; Km [19]: 31 µM; Km [20]: 24 µM; kcat [20]: 1490 s⁻¹; kcat [21]: < 0.1 s⁻¹; kcat/Km [22]: 8.42e+07 M⁻¹ s⁻¹; kcat/Km [23]: 2e+07 M⁻¹ s⁻¹; kcat/Km [24]: 3.37e+07 M⁻¹ s⁻¹; kcat/Km [25]: 6.21e+07 M⁻¹ s⁻¹
